Laboratory results: US20080311126A1, “Antisense Oligonucleotides Directed to Ribonucleotide Reducatase R2 and Uses Thereof in Combination Therapies for the Treatment of Cancer” (Genesense Technologies, Inc, priority 2004, published 2008)
Entries after “also recorded” stand apart in the source; their conditions may differ.

Legend:
Assay type in all cases: in vivo
[1] = tested on: MDA-CDDP-S4 human Cisplatin-resistant breast adenocarcinoma cells; assay: MDA-CDDP-S4 Cisplatin-resistant breast adenocarcinoma, fat pad injection in SCID mice; details: for Tumour weight as % of saline control: MDA-CDDP-S4 (breast), Cisplatin resistance, SCID
Experimental: MDA-CDDP-S4 human in vivo-selected Cisplatin-resistant breast adenocarcinoma cells (4×10^6 cells in 100 μl of PBS) were injected into the fat pad (inside of right leg) of 6-7 weeks old female SCID mice. After the size of tumour reached an approximate volume of 100 mm^3, 7 days post tumour cell injection, SEQ ID NO:1 was administered by bolus infusion into the tail vein every other day at 10 mg/kg 9 times. Control animals received saline alone for the same period. Antitumour effect of SEQ ID NO: 1 was further compared to that of Cisplatin or Taxol alone. Cisplatin was adminstered intravenously once a week for three weeks at a dose of 4 mg/kg. Taxol was administered intravenously once a week for three weeks at a dose of 10 mg/kg. Antitumour activities were estimated by the inhibition of tumour volume, which was measured with caliper. Each point represents mean tumour volume calculated from 10 animals per experimental group. […] As expected, treatment with Cisplatin during the same period was ineffective against Cisplatin-resistant tumour.
MDA-CDDP-S4 human in vivo-selected Cisplatin-resistant breast adenocarcinoma cells (4×10^6 cells in 100 μl of PBS) were injected into the fat pad (inside of right leg) of 6-7 weeks old female CB-17 SCID mice. After the size of tumour reached an approximate volume of 100 mm^3, 9 days post tumour cell injection, SEQ ID NO:1 was administered by bolus infusion into the tail vein every other day at 10 mg/kg. Control animals received saline alone for the same period. Antitumour effect of SEQ ID NO:1 was further compared to that of Taxol alone and in combination. Taxol was administered i.p. once a week at a dose of 10 mg/kg. Antitumour activities were estimated by the inhibition of tumour volume FIG. 22A), which was measured with calipers. Each point represents mean tumour volume calculated from 10 animals per experimental group. Animals were sacrificed and tumour weights taken at the end of the study (FIG. 22C). […] This study was repeated with similar results (FIG. 22B).

Human Cervical Carcinoma = assay: Tumour growth assay, human cervical carcinoma in SCID mice
[2] = tested on: MDA-MB-231 human breast cancer cells; assay: MDA-MB-231 breast tumour xenograft in CD-1 nude mice
Experimental: MDA-MB-231 human breast cancer cells (1×10^7 cells in 100 μl of PBS) were subcutaneously injected into the right flank of 6-7 weeks old female CD-1 nude mice. After the size of tumour reached an approximate volume of 100 mm^3, 5 days post tumour cell injection, SEQ ID NO:1, or the scrambled control oligonucleotide (SEQ ID NO:3) were administered by bolus infusion into the tail vein every other day at 10 mg/kg. Control animals received saline alone for the same period. Antitumour effect of SEQ ID NO:1 was further compared to that of taxol or doxorubicin alone or in combination. Taxol was administered intravenously once a week at a dose of 10 mg/kg for three (FIG. 17A) or four weeks (FIG. 17C). Doxorubicin was administered intravenously once a week at a dose of 5 mg/kg for first three weeks (FIG. 17A) or for two weeks (FIG. 17C). All treatments were stopped at day 33 (FIG. 17A) or at day 26 (FIG. 17C), respectively. A day after the last treatment, tumours were excised from the animals and their weights were measured. […] In FIG. 17C, antitumour activities were estimated by the inhibition of tumour volume, which was measured with calipers. Each point represents mean tumour volume calculated from 10 animals per experimental group.

[3] = Human Cervical Carcinoma^2 (second entry), SCID mice, Day 17 after tumour implantation

Sequence: GGCTAAATCGCTCCACCAAG (chemistry not given here) [SEQ ID NO: 1, antisense oligonucleotide that hybridizes to the coding region of human ribonucleotide reductase R2 mRNA]
- antitumour effect (tumour volume) ([1]; Example 13.3, SEQ ID NO:1 10 mg/kg 9 times, Cisplatin 4 mg/kg, Taxol 10 mg/kg i.v. weekly for three weeks): significant reduction of tumour weight
- antitumour effect (tumour volume, tumour weight) ([1]; Example 13.4, CB-17 SCID mice, SEQ ID NO:1 10 mg/kg every other day, Taxol 10 mg/kg i.p. weekly): significant reduction of tumour weight; also recorded: superior to the inhibitory effects observed with Taxol
- Tumour weight as % of saline control ([1]; Taxol combination study, first of two value columns): 18%
- Tumour weight as % of saline control ([1]; Taxol combination study, second of two value columns): 41%
- Tumour weight as % of saline control ([1]; study with Taxol and Cisplatin alone): 32%
- Inhibition of tumour weight (Human Cervical Carcinoma; Human Cervical Carcinoma^2 (first entry)): approximately 90%
- Inhibition of tumour size (Human Cervical Carcinoma; [3]): approximately 60% in SCID mice on
- Inhibition of tumour weight (Human Cervical Carcinoma; [3]): approximately 60% in SCID mice on
- Tumour weight as % of saline control ([2]; MDA-MB-231 (breast), Mouse CD-1): 12.6%
- antitumour effect (tumour weight, tumour volume) ([2]; oligonucleotide 10 mg/kg every other day i.v., taxol 10 mg/kg, doxorubicin 5 mg/kg i.v. once a week): delay of tumour growth compared to saline control in all three experiments; also recorded: superior to the inhibitory effects observed with taxol or doxorubicin alone
